We go through 15 molecules from patent publication US7691836B2, “Progesterone receptor modulators” (N.V. Organon, priority 2004, dated 2010).

Experiment [1] has as its target T1, progesterone receptor-B (Homo sapiens, UniProt P06401).
T1 sequence (P06401 1-933): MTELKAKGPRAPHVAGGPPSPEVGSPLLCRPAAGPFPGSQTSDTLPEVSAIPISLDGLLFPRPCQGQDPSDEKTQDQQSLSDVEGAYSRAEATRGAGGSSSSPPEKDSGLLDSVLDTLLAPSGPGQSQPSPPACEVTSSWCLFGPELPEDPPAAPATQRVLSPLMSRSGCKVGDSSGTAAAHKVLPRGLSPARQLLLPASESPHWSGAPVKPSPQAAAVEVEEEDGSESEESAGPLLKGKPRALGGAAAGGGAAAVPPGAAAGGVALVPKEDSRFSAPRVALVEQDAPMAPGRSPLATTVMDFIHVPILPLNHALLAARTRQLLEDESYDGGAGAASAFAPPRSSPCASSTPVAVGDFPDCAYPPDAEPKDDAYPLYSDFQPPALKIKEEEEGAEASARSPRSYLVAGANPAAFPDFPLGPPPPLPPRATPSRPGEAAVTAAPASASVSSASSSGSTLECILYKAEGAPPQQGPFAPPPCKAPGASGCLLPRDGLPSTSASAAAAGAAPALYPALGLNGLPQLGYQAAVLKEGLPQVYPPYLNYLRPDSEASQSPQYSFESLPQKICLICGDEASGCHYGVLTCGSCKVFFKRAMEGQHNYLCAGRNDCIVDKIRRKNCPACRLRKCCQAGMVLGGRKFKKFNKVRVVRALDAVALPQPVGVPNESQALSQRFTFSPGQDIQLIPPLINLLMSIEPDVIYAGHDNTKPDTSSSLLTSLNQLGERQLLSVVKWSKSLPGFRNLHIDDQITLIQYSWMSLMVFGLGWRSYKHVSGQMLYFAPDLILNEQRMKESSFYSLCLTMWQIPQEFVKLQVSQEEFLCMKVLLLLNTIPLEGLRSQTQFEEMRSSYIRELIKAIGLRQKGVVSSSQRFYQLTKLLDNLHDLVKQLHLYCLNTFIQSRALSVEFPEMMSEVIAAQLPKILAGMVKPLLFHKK
The experiment is described as follows: Progesterone receptor-B transactivation, agonistic mode (CHO cells, luciferase). The format is cell-based. Conditions: for pEC50: CHO cells, agonistic mode, read-out: PRBagoEC50; for Emax: CHO, read-out: PRBago Eff (%). From the text:
For selecting compounds of the subject invention with a mixed modulating effect on the progesterone receptor, testing in the agonistic mode must result in an intrinsic activity of between about 15% and about 85% of the maximal activity when (16α)-16-ethyl-21-hydroxy-19-norpregn-4-ene-3,20-dione is used as a reference. Moreover, this maximal agonistic activity should be reached at a concentration of 10^−6 or less, and preferably at a concentration of 10^−8 or less.
(§1) The progestagenic activity of a compound of the invention (EC50 and intrinsic agonistic activity) was determined in an in vitro bioassay of Chinese hamster ovary (CHO) cells as described by W. G. E. J. Schoonen et al. (Anal. Biochem. 261 (1998), 222-224). […] The efficacy of the antagonistic effect was expressed as the percentage of the effect produced by a standard antagonist, (6β,11β,17β)-11-[4-(dimethylamino)phenyl]-4′,5′-dihydro-6-methylspiro[estra-4,9-diene-17,2′(3′H)-furan]-3-one.
(§2) It will be recognized by those skilled in the art that, in the setting described above, the EC50 determined is more or less absolute and depends on the intrinsic property of the tested compound itself, however, the IC50 depends on the amount and agonistic EC50 of the inducer as well as on the intrinsic property of the tested compound itself. Thus, with the same amount of inducer, a relatively strong antagonist will be able to produce a measurable IC50 whereas a relatively weak antagonist may fail to produce a detectable result.

The target of experiment [2] is T1, progesterone receptor-B. As to the kind of experiment: Progesterone receptor-B transactivation, antagonistic mode (inhibition of luciferase transactivation by inducer, CHO cells). The format is cell-based. Conditions: for Emax: CHO, read-out: PRBant Eff (%); for pEC50: in the presence of 0.1 nM inducer (16α)-16-ethyl-21-hydroxy-19-norpregn-4-ene-3,20-dione, read-out: PRBant EC50. On the procedure:
In the antagonistic mode, testing must result in an intrinsic activity of between about 85% and about 15% of the maximal activity when (6β,11β,17β)-11-[4-(dimethylamino)phenyl]-4′,5′-dihydro-6-methylspiro[estra-4,9-diene-17,2′(3′H)-furan]-3-one is used as a reference.
as §1, §2

Setting [3] is: intrinsic agonistic activity, relative to reference (16α)-16-ethyl-21-hydroxy-19-norpregn-4-ene-3,20-dione.
The mark [4] stands for this setting: intrinsic antagonistic activity, percentage of effect of standard antagonist (6β,11β,17β)-11-[4-(dimethylamino)phenyl]-4′,5′-dihydro-6-methylspiro[estra-4,9-diene-17,2′(3′H)-furan]-3-one, 0.1 nM inducer.

The structures appear in SMILES notation. pEC50: −log10 of the molar value.

Take `C[C@@H]1C[C@H]2[C@@H]3CCC4=CC(=O)CCC4=C3[C@@H](c3ccc(-c4cccnc4)cc3)C[C@]2(C)[C@H]1C(=O)C1CC1` [Example 1, (11β,16α,17β)-17-cyclopropylcarbonyl-16-methyl-11-[4-(3-pyridinyl)-phenyl]estra-4,9-dien-3-one]: the pEC50 in experiment [1] is 9.70; in experiment [2], 9.57. The Emax in experiment [1] (setting [3]) turned out to be 49.2%; in experiment [2] (setting [4]) it was 46.4%.
Turning to `C[C@@H]1C[C@H]2[C@@H]3CCC4=CC(=O)CCC4=C3[C@@H](c3ccc(-c4cccnc4)cc3)C[C@]2(C)[C@H]1C(=O)C1CC1.Cl` [Example 2, (11β,16α,17β)-17-cyclopropylcarbonyl-16-methyl-11-[4-(3-pyridinyl)-phenyl]estra-4,9-dien-3-one hydrochloride], the pEC50 was 9.47 in experiment [1] and 8.48 in experiment [2]. For the same molecule, the “PRBago Eff (%)” value in experiment [1] (setting [3]) is reported as 44.5%. Besides, the “PRBant Eff (%)” value in experiment [2] (setting [4]) worked out at 47%.
As to `COc1ccc(-c2ccc([C@H]3C[C@@]4(C)[C@@H](C[C@@H](C)[C@@H]4C(=O)C4CC4)[C@@H]4CCC5=CC(=O)CCC5=C43)cc2)cn1` [Example 3, (11β,16α,17β)-17-cyclopropylcarbonyl-11-[4-(6-methoxypyridin-3-yl)phenyl]-16-methylestra 4,9-dien-3-one], the pEC50 in experiment [1] is 9.92; in experiment [2], 9.20. Also, the values for the Emax in experiment [1] (setting [3]) and in experiment [2] (setting [4]) were 41.5% and 59%, respectively.
Consider `C[C@@H]1C[C@H]2[C@@H]3CCC4=CC(=O)CCC4=C3[C@@H](c3ccc(-c4ccc(Cl)nc4)cc3)C[C@]2(C)[C@H]1C(=O)C1CC1` [Example 4, (11β,16α,17β)-11-[4-(6-chloropyridin-3-yl)phenyl]-17-cyclopropyl-carbonyl-16-methylestra-4,9-dien-3-one], for which the figures for the pEC50 in experiment [1] and in experiment [2] were 8.96 and 9.33, respectively. Further, the results for the Emax in experiment [1] (setting [3]) and in experiment [2] (setting [4]) were 46.5% and 43%, respectively.
On the same counts, the results for `C[C@@H]1C[C@H]2[C@@H]3CCC4=CC(=O)CCC4=C3[C@@H](c3ccc(-c4ccc(F)nc4)cc3)C[C@]2(C)[C@H]1C(=O)C1CC1` [Example 5, (11β,16α,17β)-17-cyclopropylcarbonyl-11-[4-(6-fluoropyridin-3-yl)phenyl]-16-methylestra-4,9-dien-3-one] are 9.31, 8.07, 50.5% and 50%.
On the same counts, the results for `COc1cncc(-c2ccc([C@H]3C[C@@]4(C)[C@@H](C[C@@H](C)[C@@H]4C(=O)C4CC4)[C@@H]4CCC5=CC(=O)CCC5=C43)cc2)c1` [Example 6, (11β,16α,17β)-17-cyclopropylcarbonyl-16-methyl-11-[4-(5-methoxy-pyridin-3-yl)phenyl]estra-4,9-dien-3-one] are 8.89, 7.55, 54% and 34%.
On the same counts, the results for `C[C@@H]1C[C@H]2[C@@H]3CCC4=CC(=O)CCC4=C3[C@@H](c3ccc(-c4cnc5ccccc5c4)cc3)C[C@]2(C)[C@H]1C(=O)C1CC1` [Example 7, (11β,16α,17β)-17-cyclopropylcarbonyl-16-methyl-11-[4-(3-quinolidinyl)phenyl]estra-4,9-dien-3-one] are 9.00, 8.50, 50% and 24%.
`C[C@@H]1C[C@H]2[C@@H]3CCC4=CC(=O)CCC4=C3[C@@H](c3ccc(-c4ccnnc4)cc3)C[C@]2(C)[C@H]1C(=O)C1CC1` [Example 8, (11β,16α,17β)-17-cyclopropylcarbonyl-16-methyl-11-[4-(4-pyridazinyl)phenyl]estra-4,9-dien-3-one]: the pEC50 in experiment [1] is 9.44; in experiment [2] it was 8.44. Besides, the Emax in experiment [1] (setting [3]) is 50.5%; in experiment [2] (setting [4]) it was 37%.
On the same counts, the results for `C[C@@H]1C[C@H]2[C@@H]3CCC4=CC(=O)CCC4=C3[C@@H](c3ccc(-c4cnccn4)cc3)C[C@]2(C)[C@H]1C(=O)C1CC1` [Example 9, (11β,16α,17β)-17-cyclopropylcarbonyl-16-methyl-11-[4-(pyrazin-2-yl)phenyl]estra-4,9-dien-3-one] are 8.95, 8.89, 54% and 35%.
On the same counts, the results for `C[C@@H]1C[C@H]2[C@@H]3CCC4=CC(=O)CCC4=C3[C@@H](c3ccc(-c4ccccn4)cc3)C[C@]2(C)[C@H]1C(=O)C1CC1` [Example 10, (11β,16α,17β)-17-cyclopropylcarbonyl-16-methyl-11-[4-(2-pyridinyl)phenyl]estra-4,9-dien-3-one] are 8.59, 7.83, 49.2% and 32.5%.
On the same counts, the results for `Cc1ccc(-c2ccc([C@H]3C[C@@]4(C)[C@@H](C[C@@H](C)[C@@H]4C(=O)C4CC4)[C@@H]4CCC5=CC(=O)CCC5=C43)cc2)nc1` [Example 11] are 8.77, 9.10, 56% and 35%.
On to `C[C@@H]1C[C@H]2[C@@H]3CCC4=CC(=O)CCC4=C3[C@@H](c3ccc(-c4ccncc4)cc3)C[C@]2(C)[C@H]1C(=O)C1CC1` [Example 12, (11β,16α,17β)-17-cyclopropylcarbonyl-16-methyl-11-[4-(4-pyridinyl)phenyl]estra-4,9-dien-3-one], for which the results for the pEC50 in experiment [1] and in experiment [2] were 8.40 and 8.60, respectively. The Emax came out at 56% in experiment [1] (setting [3]) and 26.5% in experiment [2] (setting [4]).
On the same counts, the results for `C=C[C@@H]1C[C@H]2[C@@H]3CCC4=CC(=O)CCC4=C3[C@@H](c3ccc(-c4cccnc4)cc3)C[C@]2(C)[C@H]1C(=O)C1CC1` [Example 13, (11β,16α,17β)-17-cyclopropylcarbonyl-16-ethenyl-11-[4-(3-pyridinyl)phenyl]estra-4,9-dien-3-one] are 9.18, 9.21, 46.8% and 38%.
On the same counts, the results for `C[C@]12C[C@H](c3ccc(-c4cccnc4)cc3)C3=C4CCC(=O)C=C4CC[C@H]3[C@@H]1C[C@@H](/C=C/c1ccccc1)[C@@H]2C(=O)C1CC1` [Example 14, [11β,16α(E),17β]-17-cyclopropylcarbonyl-16-(2-phenylethenyl)-11-[4-(3-pyridinyl)phenyl]estra-4,9-dien-3-one] are 8.24, 7.54, 49.8% and 34.5%.
For the molecule `C=C[C@@H]1C[C@H]2[C@@H]3CCC4=CC(=O)CCC4=C3[C@@H](c3ccc(-c4ccc(OC)nc4)cc3)C[C@]2(C)[C@H]1C(=O)C1CC1` [Example 15, (11β,16α,17β)-17-(cyclopropylcarbonyl)-16-ethenyl-11-[4-(6-methoxypyridin-3-yl)phenyl]estra-4,9-dien-3-one], the figures for the pEC50 in experiment [1] and in experiment [2] were 9.13 and 9.01, respectively. Also, the Emax in experiment [1] (setting [3]) stood at 41.4%; in experiment [2] (setting [4]) it was 44.5%.
